Values quoted from earlier work in patent publication US10674699B2, “Endophyte enhanced seedlings with increased pest tolerance” (priority 2006, dated 2020).

System: spruce budworm cells
Details: Can J Chem 81: 284; cited from earlier work

With “trihydroxy-4-1′-hydroxyethyl) isocoumarin” as the substance, how does the “toxicity to spruce budworm cells” value read?
The value was “^camong others; a new compound trihydroxy-4-1′-hydroxyethyl) isocoumarin also toxic to spruce budworm cells (Can J Chem 81: 284)”.
